According to US12384753B2, “17-beta-hydroxysteroid dehydrogenase type 13 inhibitors and methods of use thereof” (Enanta Pharmaceuticals, Inc., priority 2021, dated 2025):

Target: Recombinant human HSD17B13 (Homo sapiens (Human), UniProt Q7Z5P4)
Test: HSD17B13 rapid-fire mass spectrometry assay (RF/MS assay)
Format: biochemical
Conditions: inhibition of HSD17B13; LTB4 10 μM, NAD+ 0.5 mM, RT 3 h; IC50 ranges A-E
Outline: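 Sf9-expressed human HSD17B13 (80 nM) with 10 μM LTB4 and 0.5 mM NAD+, incubated with compound (0–100 μM) for 3 h at RT in Tris pH 7.5/BSA/Tween-20. After formic acid quench, LTB4 conversion to 12-oxo-LTB4 measured by RapidFire MS/MS. IC50 from normalised residual activity, duplicates.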

Sequence of Recombinant human HSD17B13 (Q7Z5P4 20-300): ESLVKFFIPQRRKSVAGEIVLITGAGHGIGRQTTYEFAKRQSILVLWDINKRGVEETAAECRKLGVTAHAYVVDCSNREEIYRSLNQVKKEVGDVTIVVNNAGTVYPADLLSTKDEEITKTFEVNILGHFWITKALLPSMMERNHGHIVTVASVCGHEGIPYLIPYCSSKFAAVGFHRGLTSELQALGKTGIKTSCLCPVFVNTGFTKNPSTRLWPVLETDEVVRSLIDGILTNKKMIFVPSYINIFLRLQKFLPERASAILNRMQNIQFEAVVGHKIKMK

Structure (SMILES)	IC50 [nM]
COc1cc(C(=O)O)c(F)cc1NS(=O)(=O)c1cnc(-c2ccc(C3=CCC(C(C)(C)C)CC3)cc2)s1 (stereo not shown) [Example 717]	< 100
COc1cc(C(=O)O)ccc1NS(=O)(=O)c1cnc(-c2ccc(-c3ccc(C(F)(F)F)cc3)cc2)s1 [Example 718]	< 100
COc1cc(C(=O)O)c(F)cc1NS(=O)(=O)c1cnc(-c2ccc(C3=CCC(C(F)(F)F)CC3)cc2)s1 (stereo not shown) [Example 719]	< 100
COc1cc(C(=O)O)c(F)cc1NS(=O)(=O)c1cnc(-c2ccc([C@H]3CC[C@@H](C(C)(C)C)CC3)cc2)s1 [Example 720]	100 to 500
COc1cc(C(=O)O)c(F)cc1NS(=O)(=O)c1cnc(-c2ccc([C@H]3CC[C@H](C(C)(C)C)CC3)cc2)s1 [Example 721]	100 to 500
COc1cc(C(=O)O)ccc1NS(=O)(=O)c1cnc(-c2ccc(C3=CC4CCC3C4)cc2)s1 (stereo not shown) [Example 722]	100 to 500
CC[C@H]1CC[C@H](c2ccc(-c3nc(S(=O)(=O)Nc4cc(F)c(C(=O)O)cc4OC)cs3)cc2)CC1 [Example 723]	< 100
COc1cc(C(=O)O)c(F)cc1NS(=O)(=O)c1cnc(-c2ccc([C@H]3CC[C@@H](C(F)(F)F)CC3)cc2)s1 [Example 724]	< 100
COc1cc(C(=O)O)c(F)cc1NS(=O)(=O)c1cnc(-c2ccc([C@H]3CC[C@H](C(F)(F)F)CC3)cc2)s1 [Example 725]	< 100
COc1cc(C(=O)O)c(F)cc1NS(=O)(=O)c1cnc(-c2ccc(C3=CC=C(F)CC3)cc2)s1 [Example 726]	100 to 500
COc1cc(C(=O)O)c(F)cc1NS(=O)(=O)c1cnc(-c2ccc(C3=CCC(F)(F)CC3)cc2)s1 [Example 727]	100 to 500
COc1cc(C(=O)O)c(F)cc1NS(=O)(=O)c1cnc(-c2ccc(C3=CCC(C)(C)CC3)cc2)s1 [Example 728]	< 100
COc1cc(C(=O)O)c(F)cc1NS(=O)(=O)c1cnc(-c2ccc([C@H]3CC[C@@H](C(C)C)CC3)cc2)s1 [Example 729]	100 to 500
COc1cc(C(=O)O)c(F)cc1NS(=O)(=O)c1csc(-c2ccc([C@H]3CC[C@H](C(C)C)CC3)cc2)n1 [Example 730]	< 100
COc1cc(C(=O)O)c(F)cc1NS(=O)(=O)c1csc(-c2ccc(-c3ccc(C45CC6C[C@H](C4)C[C@H](C6)C5)cc3)cc2)n1 [Example 731]	< 100
COc1cc(C(=O)O)c(F)cc1NS(=O)(=O)c1csc(-c2ccc(C34CC5C[C@H](C3)C[C@H](C5)C4)cc2)n1 [Example 732]	100 to 500
CCC[C@H]1CC[C@H]([C@H]2CC[C@@H](c3nc(S(=O)(=O)Nc4cc(F)c(C(=O)O)cc4OC)cs3)CC2)CC1 [Example 733]	100 to 500
CCC[C@H]1CC[C@H]([C@H]2CC[C@H](c3nc(S(=O)(=O)Nc4cc(F)c(C(=O)O)cc4OC)cs3)CC2)CC1 [Example 734]	100 to 500
COc1cc(C(=O)O)c(F)cc1NS(=O)(=O)c1csc(-c2ccc(-c3ccc(C(F)(F)C(F)(F)F)cc3)cc2)n1 [Example 735]	100 to 500
COc1cc(C(=O)O)ccc1NS(=O)(=O)c1cnc(-c2ccc(C3=CCC4(CC3)CC4)cc2)s1 [Example 736]	100 to 500
COc1cc(C(=O)O)c(F)cc1NS(=O)(=O)c1csc(-c2ccc(-c3ccc(-c4ccc(C56CC7C[C@H](C5)C[C@H](C7)C6)cc4)cc3C(F)(F)F)cc2C(F)(F)F)n1 [Example 737]	1000 to 100000

Structure (SMILES)	IC50 [nM]
COc1cc(C(=O)O)c(F)cc1NS(=O)(=O)c1csc(-c2ccc(-c3ccc(C45CC6C[C@H](C4)C[C@H](C6)C5)cc3)c(C(F)(F)F)c2)n1 [Example 738]	100 to 500
COc1cc(C(=O)O)c(F)cc1NS(=O)(=O)c1csc(-c2ccc(-c3ccc(C45CC6C[C@H](C4)C[C@H](C6)C5)cc3)c(F)c2F)n1 [Example 739]	100 to 500
COc1cc(C(=O)O)c(F)cc1NS(=O)(=O)c1csc(-c2ccc(-c3ccc(C(F)(F)F)cc3)cc2)n1 [Example 740]	< 100
COc1cc(C(=O)O)c(F)cc1NS(=O)(=O)c1csc(-c2ccc(C3=CCC(C(C)C)CC3)cc2C(F)(F)F)n1 (stereo not shown) [Example 741]	< 100
COc1cc(C(=O)O)c(F)cc1NS(=O)(=O)c1csc(-c2ccc(-c3ccc(C4=CCC(C(C)C)CC4)cc3C(F)(F)F)cc2C(F)(F)F)n1 (stereo not shown) [Example 742]	100 to 500
COc1cc(C(=O)O)c(F)cc1NS(=O)(=O)c1csc(-c2ccc(-c3ccc(C45CC6C[C@H](C4)C[C@H](C6)C5)cc3)c(OC)c2)n1 [Example 743]	100 to 500
COc1cc(C(=O)O)c(F)cc1NS(=O)(=O)c1csc(-c2ccc(-c3ccc(C45CC6C[C@H](C4)C[C@H](C6)C5)cc3)cc2OC)n1 [Example 744]	100 to 500
COc1cc(C(=O)O)c(F)cc1NS(=O)(=O)c1csc(-c2ccc(C(F)(F)C(F)(F)F)cc2)n1 [Example 745]	100 to 500
COc1cc(C(=O)O)ccc1NS(=O)(=O)c1cnc(-c2ccc(C3CCC4(CC3)CC4)cc2)s1 [Example 746]	100 to 500
COc1cc(C(=O)O)c(F)cc1NS(=O)(=O)c1csc(-c2ccc(C3=CCC(C(C)(C)C)CC3)cc2)n1 (stereo not shown) [Example 747]	< 100
COc1cc(C(=O)O)c(F)cc1NS(=O)(=O)c1csc(-c2ccc(C3(O)CCC(C)(C)CC3)cc2)n1 [Example 748]	< 100
COc1cc(C(=O)O)ccc1NS(=O)(=O)c1csc(-c2ccc(F)cc2)n1 [Example 749]	100 to 500
COc1cc(C(=O)O)c(F)cc1NS(=O)(=O)c1csc(-c2ccc(-c3ccc(C45CC6C[C@H](C4)C[C@H](C6)C5)cc3)c(OC(F)(F)F)c2)n1 [Example 750]	100 to 500
COc1cc(C(=O)O)c(F)cc1NS(=O)(=O)c1csc(-c2ccc(-c3ccc(C4CCC(C(C)C)CC4)cc3C(F)(F)F)cc2C(F)(F)F)n1 (stereo not shown) [Example 753]	100 to 500
COc1cc(C(=O)O)c(F)cc1NS(=O)(=O)c1csc(-c2ccc(-c3ccc([C@H]4CC[C@H](C(C)C)CC4)cc3C(F)(F)F)cc2C(F)(F)F)n1 [Example 754]	100 to 500
CCC[C@H]1CC[C@H](c2ccc(-c3nc(S(=O)(=O)Nc4cc(F)c(C(=O)O)cc4OC)cs3)c(F)c2)CC1 [Example 755]	< 100
COc1cc(C(=O)O)c(F)cc1NS(=O)(=O)c1csc(-c2ccc(-c3ccc(C(C)(F)F)cc3)cc2C(F)(F)F)n1 [Example 756]	< 100
COc1cc(C(=O)O)c(F)cc1NS(=O)(=O)c1csc(-c2ccc(-c3ccc(C4CC4)cc3C(F)(F)F)cc2C(F)(F)F)n1 [Example 757]	< 100
COc1cc(C(=O)O)c(F)cc1NS(=O)(=O)c1csc(-c2ccc(C3=CCC4(CC3)CC4)cc2)n1 [Example 758]	100 to 500
CCCCC[C@H]1CC[C@H](c2ccc(-c3nc(S(=O)(=O)Nc4cc(F)c(C(=O)O)cc4OC)cs3)c(F)c2)CC1 [Example 759]	100 to 500
COc1cc(C(=O)O)c(F)cc1NS(=O)(=O)c1csc(-c2ccc(-c3ccc(C45CC6C[C@H](C4)C[C@H](C6)C5)cc3)cc2F)n1 [Example 760]	< 100

Structure (SMILES)	IC50 [nM]
COc1cc(C(=O)O)c(F)cc1NS(=O)(=O)c1csc(-c2ccc([C@H]3CC[C@@H](C(C)(C)C)CC3)cc2)n1 [Example 761]	100 to 500
COc1cc(C(=O)O)c(F)cc1NS(=O)(=O)c1csc(-c2ccc([C@H]3CC[C@H](C(C)(C)C)CC3)cc2)n1 [Example 762]	< 100
COc1cc(C(=O)O)c(F)cc1NS(=O)(=O)c1csc(-c2ccc(OC3CCCCC3)cc2)n1 [Example 763]	100 to 500
COc1cc(C(=O)O)c(F)cc1NS(=O)(=O)c1cnc(-c2ccc(C3CCC(C)(C)CC3)cc2)s1 [Example 764]	< 100
COc1cc(C(=O)O)c(F)cc1NS(=O)(=O)c1cnc(-c2ccc(C3=CCC(C(C)C)CC3)cc2)s1 (stereo not shown) [Example 765]	100 to 500
COc1cc(C(=O)O)c(F)cc1NS(=O)(=O)c1cnc(-c2ccc(-c3ccc(C45CC6C[C@H](C4)C[C@H](C6)C5)cc3)cc2)s1 [Example 766]	100 to 500
COc1cc(C(=O)O)c(F)cc1NS(=O)(=O)c1csc(-c2ccc(F)cc2)n1 [Example 767]	100 to 500
COc1cc(C(=O)O)c(F)cc1NS(=O)(=O)c1cnc(-c2ccc([C@H]3CC[C@H](C(C)C)CC3)cc2)s1 [Example 769]	100 to 500
COc1cc(C(=O)O)c(F)cc1NS(=O)(=O)c1cnc(-c2ccc(-c3ccc(C(F)(F)C(F)(F)F)cc3)cc2)s1 [Example 770]	< 100
COc1cc(C(=O)O)c(F)cc1NS(=O)(=O)c1csc(-c2ccc(C3=CCC(C(C)C)CC3)c(F)c2F)n1 (stereo not shown) [Example 771]	< 100
COc1cc(C(=O)O)c(F)cc1NS(=O)(=O)c1csc(-c2ccc([C@H]3CC[C@@H](C(C)C)CC3)c(F)c2F)n1 [Example 772]	< 100
COc1cc(C(=O)O)c(F)cc1NS(=O)(=O)c1csc(-c2ccc([C@H]3CC[C@H](C(C)C)CC3)c(F)c2F)n1 [Example 773]	< 100
COc1cc(C(=O)O)c(F)cc1NS(=O)(=O)c1csc(-c2ccc(C3=CCC(C(C)C)CC3)cc2)n1 (stereo not shown) [Example 774]	< 100
COc1cc(C(=O)O)c(F)cc1NS(=O)(=O)c1csc(-c2ccc(-c3ccc(C45CC6C[C@H](C4)C[C@H](C6)C5)cc3)cc2C(F)(F)F)n1 [Example 775]	< 100
COc1cc(C(=O)O)c(F)cc1NS(=O)(=O)c1csc(-c2ccc(C3=CCC(C(C)(C)C)CC3)cc2C(F)(F)F)n1 (stereo not shown) [Example 776]	< 100
COc1cc(C(=O)O)c(F)cc1NS(=O)(=O)c1csc(-c2ccc(C3CCC4(CC3)CC4)cc2)n1 [Example 778]	< 100
CCC[C@H]1CC[C@H](C2CC=C(c3nc(S(=O)(=O)Nc4cc(F)c(C(=O)O)cc4OC)cs3)CC2)CC1 (stereo partly shown) [Example 779]	100 to 500
COc1cc(C(=O)O)c(F)cc1NS(=O)(=O)c1csc(-c2ccc([C@H]3CC[C@H](C(C)(C)C)CC3)cc2C(F)(F)F)n1 [Example 780]	< 100
COc1cc(C(=O)O)c(F)cc1NS(=O)(=O)c1csc(-c2ccc(-c3ccc(C4CCC(C(C)(C)C)CC4)cc3C(F)(F)F)cc2C(F)(F)F)n1 (stereo not shown) [Example 781]	100 to 500
